According to US11186541B2, “Potent inhibitors of aspartate N-acetyl-transferase for the treatment of Canavan disease” (The University of Toledo, priority 2016, dated 2021):

Target: T1, Recombinant maltose-binding protein-human aspartate N-acetyltransferase (MBP-ANAT) fusion enzyme (Homo sapiens, UniProt Q8N9F0)
T1 construct: His tag (C); made in house; host or cells: E. coli NiCo21(DE3)
T1 sequence (Q8N9F0 1-302): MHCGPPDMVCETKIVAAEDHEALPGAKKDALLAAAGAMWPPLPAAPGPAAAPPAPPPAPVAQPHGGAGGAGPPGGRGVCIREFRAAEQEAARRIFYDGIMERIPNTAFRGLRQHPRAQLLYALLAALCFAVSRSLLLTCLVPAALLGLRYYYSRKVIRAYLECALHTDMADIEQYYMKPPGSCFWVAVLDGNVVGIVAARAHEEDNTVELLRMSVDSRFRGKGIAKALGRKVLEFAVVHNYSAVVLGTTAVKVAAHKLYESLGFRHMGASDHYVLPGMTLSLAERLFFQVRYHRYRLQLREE
Experiment: ANAT activity, DTNB-based assay (inhibitor screening and kinetic evaluation)
Assay type: biochemical
Settings: for Ki: read-out: inhibition constant against ANAT
Excerpt: ANAT is difficult to purify. […] This can be accomplished, for example, as described in U.S. Provisional Patent Application No. 62/216,700, which is incorporated herein by reference for all purposes. […] An optimized thiol detection assay can be used to kinetically characterize this newly produced enzyme form.
Recombinant maltose-binding protein-human aspartate N-acetyltransferase (MBP-ANAT) fusion enzyme was expressed and purified as described in U.S. Provisional Patent Application No. 62/216,700. Briefly, NiCo21(DE3) competent E. coli cells (New England Biolabs, Ipswich, Mass.) were transformed with an MBP-ANAT-his construct and selected on LB plates with 30 μg/ml kanamycin. Colonies from these plates were used to inoculate starter cultures in LB media. After diluting each starter culture by 100-fold in 1 L of LB media, cell growth was continued for about 2 hours at 37° C. until A600 reached 0.6. IPTG was then added to a final concentration of 0.5 mM, and protein expression was induced at 16° C. for 20 hours. To purify MBP-ANAT, a Ni Sepharose 6 Fast Flow column (GE healthcare, Pittsburgh, Pa.) was equilibrated with Buffer A (20 mM potassium phosphate, pH 7.4, 300 mM sodium chloride, 10% glycerol, and 20 mM imidazole). Cell lysate was loaded on to the column and partially purified ANAT was then eluted with a linear gradient of Buffer B (buffer A containing 400 mM imidazole). The active fractions were pooled and loaded onto an amylose column and highly purified ANAT fusion was then obtained by elution with a 0-10 mM linear maltose gradient. ANAT activity was measured by an established DTNB-based assay using a SpectraMax 190 spectrophotometer plate reader (Molecular Devices, Calif.). A typical activity assay contained 20 mM HEPES, pH 7.4, 150 mM NaCl, 5% glycerol, 40 μM DTNB, 40 μM acetyl-CoA, and 2 mM L-aspartate in a total volume of 200 μl. Reaction was monitored at 412 nm (ε=14.15 mM^−1 cm^−1) for at least 15 minutes.
Three different compound libraries were used for initial screening of ANAT inhibitors. These small compound libraries were assembled in-house: an amino acids library contained 96 compounds, a metabolite library contained 96 compounds, and a second amino acids library contained 64 compounds. An additional constrained analogs library contained 77 compounds that were purchased from commercial sources.

Structure (SMILES)	Ki [µM]	ANAT inhibitor potency (in words)
O=C1CC[C@H](C(=O)O)N1 [2-D-pyroglutamic acid]	> 2000	–
O=C(O)c1cc(-c2ccccc2F)no1 [3-(2-fluoro-phenyl)-isoxazole-5-carboxylic acid]	> 2000	–
Cc1noc(-c2cccc(C(=O)O)c2)n1 [3-(3-methyl-1,2,4-oxadiazol-5-yl-benzoic acid]	> 2000	–
NC(=O)[C@@H](N)CC(=O)O [L-aspartic acid amide]	–	neither alternative substrates nor inhibitors
O=C(O)C[C@H](NC(=O)OCc1ccccc1)C(=O)O [N-[(benzyloxy)carbonyl]-L-aspartic acid]	–	surprisingly high potency
O=C(O)CC[C@H](NC(=O)c1ccccc1)C(=O)O [N-benzoyl-L-glutamate]	130	–
O=C(O)C[C@H](NC(=O)c1ccccc1)C(=O)O [comparable L-aspartate derivative, sodium N-benzoyl-L-aspartate]	> 2000	–
